This note sets out measurements from patent US8710062B2, “Piperazinedione compounds” (Taipei Medical University, priority 2011, dated 2014).

Counter-ions that a name gives are not always drawn.

This assay concerns 60 Human Cancer Cell Lines (NCI-60). Put plainly: Broad-spectrum anticancer activity (NCI-60, SRB). The class given is cell-based. The conditions noted are these: mean against leukemia, NSCLC, colon, CNS, melanoma, ovarian, renal, prostate and breast cancer, 48 h, read-out: mean pIC50 (converted). The method, then:
Broad-spectrum anticancer activities were conducted by NCI/NIH following standard protocols.
Human tumor cell lines were grown in RPMI 1640 medium containing 5% fetal bovine serum and 2 mM L-glutamine. For a typical screening experiment, cells were inoculated into 96-well microtiter plates in 100 μL at the plating densities ranging from 5,000 to 40,000 cells/well depending on the doubling time of individual cell lines. After cell inoculation, the microtiter plates were incubated at 37° C., 5% CO2, 95% air and 100% relative humidity for 24 h prior to addition of experimental drugs. […]
Following drug addition, the plates were incubated for an additional 48 h at 37° C., 5% CO2, 95% air, and […]. […] Bound stain was subsequently solubilized with 10 mM trizma base, and the absorbance was read on an automated plate reader at a wavelength of 515 nm. […] Using the seven absorbance measurements [time zero, (Tz), control growth, (C), and test growth in the presence of drug at the five concentration levels (Ti)], the percentage growth was calculated at each of the drug concentrations levels. Percentage growth inhibition was calculated as: [(Ti−Tz)/(C−Tz)]×100 for concentrations for which Ti>/=Tz [(Ti−Tz)/Tz]×100 for concentrations for which Ti<Tz.
Three dose response parameters were calculated for each experimental agent. […]

`O=c1[nH]/c(=C\c2ccc(OCc3ccncc3)cn2)c(=O)[nH]/c1=C\c1ccccc1` [Compound 2, 3-benzylidene-6-((5-(pyridin-4-ylmethoxy)pyridin-2-yl)methylene)piperazine-2,5-dione methanesulfonic acid salt]: the IC50 is 52.5 nM.
